The values that follow come from patent publication US20200017603A1, “NOVEL USES OF PCSK9 INHIBITORS AND RELATED MEDICATIONS” (BHL PATENT HOLDINGS, LLC, priority 2016, published 2020).

Where two headings read alike, the source gives them in different places.

The conditions of data set [1]: monkeys, 3-month, co-administered with atorvastatin at doses producing modest ALT increases; cited from earlier work.
The conditions of data set [2]: humans administered alirocumab; cited from earlier work.
For data set [3] the following is noted: monkey, in vivo; cited from earlier work.
Data set [4] has as its system CD81. The data set is described as follows: CD81 expression in vivo in PCSK9-/- mice after alirocumab. The note with it: after administering alirocumab. Here is the method: (§1) CD81 expression in vivo in PCSK9−/−mice and in hyperlipidemic mice expressing human PCSK9 with reduced LDLR expression (PCSK9hum/hum/LDLR+/−) were tested after administering alirocumab; no changes in total CD81 levels were observed. […] Based on conflicting data, the relevant scientific literature is currently considered inadequate to conclusively address the potential impact of alirocumab on HCV infectivity. It should be noted that increased cell-surface LDLR has also been postulated to modulate HCV infectivity; statins, like alirocumab, increase cell-surface LDLR.

The test system of a further data set is HCV. The experiment in a line: HCV infectivity and replication kinetics in vitro with extracellular PCSK9 in presence/absence of alirocumab. In kind it is cell-based. The note with it: addition of extracellular PCSK9 in the presence/absence of alirocumab.
Data set [5] has as its system CD81. The experiment in a line: CD81 expression in vivo in hyperlipidemic PCSK9hum/hum/LDLR+/- mice after alirocumab. The note with it: hyperlipidemic mice expressing human PCSK9 with reduced LDLR expression (PCSK9hum/hum/LDLR+/-), after administering alirocumab. Here is the method:
as §1

The conditions of data set [6]: rat, in vivo; cited from earlier work.
For data set [7] the following is noted: monkey, in vivo; cited from earlier work. This is another data set of the same source.
The conditions of data set [8]: monkey, in vivo; cited from earlier work. This is another data set of the same source.
The conditions of data set [9]: cited from earlier work.
The nature of data set [10]: Patient with chronically elevated liver enzymes and bilirubin treated with Praluent brand alirocumab. Format: in vivo, human. The note with it: middle age person. An excerpt: A middle age person had chronically elevated AST, ALT and gamma glutamyl transferase and elevated bilirubin levels and clay colored stools. There was no viral hepatitis. […] The patient also felt less fatigued.

For data set [11] the following is noted: rat, in vivo; cited from earlier work. The source holds these as a separate data set.
For data set [12] the following is noted: monkey, cited from earlier work.
The mark [13] stands for this setting: chronically elevated, no viral hepatitis, after treatment for 1-2 months.

In the case of alirocumab, the liver toxicity entry in data set [1] is listed as “not exacerbated”. For the same substance, the HDL-C entry in data set [2] is given as “not reduced”. Besides, the “alirocumab-related effects on peripheral neurons” value in data set [3] was “No significant alirocumab-related effects”. Further, the “total CD81 levels” value in the data set with CD81 [4] was “no changes”. Besides, in the data set on HCV, the “effects on HCV infectivity” value is listed as “No effects” and the “effects on HCV replication kinetics” value was “No effects”. Further, the “total CD81 levels” value in the data set on CD81 [5] is “no changes”. Also, in data set [6], the “alirocumab-related effects on peripheral neurons” value is “No significant alirocumab-related effects”. In [7], the “effects on T-cell dependent antibody response” value is on record as “no effects”, the “effects on cytotoxic T-cell activity” value is on record as “no effects”, the “effects on immune cell populations” value was “no effects” and the “effects on natural killer cell activity” value is on record as “no effects”. The imbalances for infections result in data set [8] was “no imbalances”. The “sinusoidal cell defects in the liver” value in data set [9] (rat, in vivo) was “sinusoidal cell defects were observed”. The HDL result in [9] (rats administered alirocumab) is “low HDL”. Further, in [10] (setting [13]), the ALT entry is on record as “returned to normal”, the AST entry is recorded as “returned to normal” and the gamma glutamyl transferase entry was “returned to normal”. Moreover, the bilirubin levels entry in data set [10] (elevated, after treatment for 1-2 months) is recorded as “returned to normal”. Moreover, in [10] (after treatment), the fatigue result is “less fatigued”. In data set [10] (after treatment for 1-2 months), the clay colored stools entry is “became normal”. Moreover, in data set [11], the imbalances for infections entry is listed as “no imbalances”. In data set [12] (in vivo), the “sinusoidal cell defects in the liver (this phenomenon)” value is recorded as “not observed”. In [12], the HDL-C levels entry was “greatly reduced”.
